The values below come from patent US6211173A, “Use of 2,3,4,5-tetrahydro-1H-3-benzazepines for the manufacture of a pharmaceutical composition for the treatment of sleep disorders” (Cenes Limited, priority 1997, dated 2001).

Data set [1] concerns dopamine D1 receptor. The note with it: preclinical, rat; cited from earlier work.
Data set [2] is described as follows: Serum concentration following oral administration in men (pharmacokinetic experiments). It counts as in vivo. How it is done: NNC 0756 (80 mg) and another dopamine D1 receptor antagonist, the compound of Example 4 (25 mg), were administered to two and three men, respectively. Serum concentrations of the compounds were measured 1.5 and 6.0 hours following oral administration of the compound of Example 4 and 1.5 and 8.0-8.8 hours following oral administration of NNC 0756.

The conditions of data set [3]: background statement, no test described; cited from earlier work.
For data set [4], the system named is dopamine D1 receptor. The note with it: preclinical, rat; cited from earlier work. The source holds these as a separate data set.

In the case of `Oc1cc2c(cc1O)C(c1ccccc1)CNCC2` (centres unmarked) [SKF 38393], in the data set with dopamine D1 receptor [1], the “amount of REM sleep” value is reported as “reduced the amount of REM sleep” and the duration of wakefulness entry is listed as “increased the duration of wakefulness”.
In the case of `CN1CCc2cc([N+](=O)[O-])c(O)cc2C(c2cccc3c2OCC3)C1` (single isomer, unassigned; (+)) [Example 4, (+)-5-(2,3-dihydrobenzofuran-7-yl)-7-hydroxy-3-methyl-8-nitro-2,3,4,5-tetrahydro-1H-3-benzazepine], the “serum concentration of the compound of Example 4 relative to the serum concentration measured 1.5 hours after drug administration” value in data set [2] (25 mg oral, three men, 6 hours after administration vs 1.5 hours) is given as “about 10%”. The “elimination time compared to NNC 0756” value in data set [2] (compared to the kinetic profile of NNC 0756) is given as “shorter elimination time”.
Regarding `CN1CCc2cc(Cl)c(O)cc2C(c2cccc3c2OCC3)C1` (single isomer, unassigned; (+)) [NNC 0756, (+)-8-chloro-7-hydroxy-3-methyl-5-(2,3-dihydrobenzofuran-7-yl)-2,3,4,5-tetrahydro-1H-3-benzazepine], in data set [3], the half life entry is on record as “relatively long half life”. Moreover, in the data set with dopamine D1 receptor [4], the “REM and non-REM sleep” value was “increase in both REM and non-REM sleep”; the “time spent in sleep” value is “markedly enhance the time spent in sleep”. For the same compound, the “serum concentration of NNC 0756 relative to the serum concentration measured 1.5 hours after administration” value in data set [2] (80 mg oral, two men, 8.0-8.8 hours after administration vs 1.5 hours) is “about 35%”.
